Source: article PMC8308524, “Interaction between DNA, Albumin and Apo-Transferrin and Iridium(III) Complexes with Phosphines Derived from Fluoroquinolones as a Potent Anticancer Drug” (Pharmaceuticals, 2021)

Assays:
apo-transferrin (apo-Tf) = target: T1, apo-transferrin (apo-Tf) (Homo sapiens, UniProt P02787); experiment: Fluorescence quenching of apo-transferrin; assay type: binding; settings: apo-Tf 3.6 × 10^−6 M, 50 mM phosphate buffer pH 7.4, excitation 295 nm, Stern–Volmer
T1 construct: purchased Sigma–Aldrich (Hamburg, Germany)
Method: A solution of apo-Tf was titrated with increasing concentrations of all the tested compounds, and the fluorescence intensity of apo-Tf was monitored spectrophotometrically (Figure 9A; Supplementary Materials, Figures S6 and S7). At the same time, Ksv values were determined from Stern–Volmer plots (Figure 9B, Table 4).
(§1) In order to confirm the quenching mechanism, the fluorescence quenching was analyzed according to Stern–Volmer in Equation (2):(2) I0/I=1+KsvC where I0 and I are the fluorescence intensities in the absence and presence of the quencher, respectively, KSV is the Stern–Volmer quenching constant, and [C] is the concentration of the quencher, respectively.
Apo-transferrin (apo-Tf) solution was prepared by dissolving the solid protein in 50 mM of phosphate-buffered saline (PBS) (pH = 7.4), C (apo-Tf) ≈ 3,6 × 10^− 6 M. The solution of the Tf was titrated in different molar ratios (0.5, 1, 2, 3, 4, 5, 6, 7, 8, 9, and 10) by IrPCp, IrPNr, IrPSf, IrPLm with corresponding phosphines (dissolved in DMSO) and incubated for 1h with any portion from each of the investigated compounds. The final volume of DMSO was 2% in each sample. The excitation wavelength was equal to 295 nm. The spectra of circular dichroism were recorded using a spectropolarimeter JASCO J-715 (CD and MCD).

CT DNA = experiment: Competitive fluorescence quenching of CT DNA-DAPI (minor groove binding); design: species or system calf; unit not given here; settings: extended Stern–Volmer plot
Excerpt: It is well known that the cytotoxic activity of various drugs (e.g., fluoroquinolones) depends on interaction with DNA [1]. […] Several well-known DNA binding dyes with well-established binding modes were used: ethidium bromide (EB; intercalation), 4′,6-diamidino-2-phenylindole (DAPI; binding to a minor groove), and methyl green (MG; binding to a major groove). The compounds that can bind to DNA more strongly than the above-mentioned binding dyes (EB, DAPI, or MG) reduce the DNA-binding dye emission due to the replacement of dye. The emission spectra of the CT DNA-binding dye complex were measured at different concentrations of the investigated compounds, (Figure 2; Supplementary Materials, Figures S1–S4).
Furthermore, we conducted a similar competitive experiment using DAPI Figure 3, and Figures S2 and S3 in Supplementary Materials. […] The displacement of bound DAPI from its binding site on CT DNA is much stronger than when EB is used. In order to confirm the quenching mechanism, the fluorescence quenching was analyzed according to Stern–Volmer equations (Figure 3A) and KDSV (dynamic quenching constant) values, which are presented in Figure 3B. Based on Stern–Volmer plots (Figure 3A), the strength of CT DNA-DAPI fluorescence quenching formed the following order: IrPSf > IrPCp > IrPNr > IrPLm.
The stock solution was prepared by dissolving of the calf thymus (CT DNA) in 50 mM phosphate buffer saline (PBS) (pH = 7.4). The CT DNA concentration (C = 5 × 10^−5 M) was determined by a UV spectrophotometer using the molar absorption coefficient […] at 258 nm. The stock solution was stored at 4 °C and used for > 6 days. The luminescent complexes of CT DNA with EB (ethidium bromide), DAPI (4′,6-diamidyno−2-fenyloindol), and MG (methyl green) were prepared by mixing the substrates in the equimolar ratio (CCT DNA-fluorescent dye = 5 × 10^−5 M; 50 mM of the phosphate buffer at pH = 7.4). The solution of the CT DNA fluorescent dye system was titrated in different molar ratios (0.5, 1, 2, 3, 4, 5, 6, 7, 8, 9, and 10) with the tested substances (dissolved in DMSO) and incubated for 1 h for each portion of the investigated compounds. The final concentration of DMSO was 2% in each sample. Photoluminescence measurements were recorded at 298 K using a Cary Eclipse Fluorescence Spectrophotometer. The excitation wavelength was 510 nm for the CT DNA-EB complex, 358 nm for the CT DNA-DAPI complex, and 633 nm for the CT DNA-MG complex. The Inner Filter Effect was considered and the corrected intensity of the emission band was calculated using Equation (1), where: Abs—absorbance at analyzed emission wavelength; If—uncorrected emission intensity. (1) Icor=If 2.303 Abs/ 1−10^Abs
as §1
In same case, it was clearly observed that both static and dynamic quenching occur simultaneously where a nonlinear curve is observed. In such cases, extended Stern–Volmer plots can be used to describe the new situation with the following Equation (3). (3) 1−(I/I0)/C=KDSV(I/I0) +V where I0 and I are the fluorescence intensities in the absence and presence of the quencher, respectively; KDSV is the dynamic quenching constant; [C] is the concentration of the quencher, and V is the volume of the sphere of action. We drew the plots of ([1 − (I/I0)]/[C]) versus I/I0. KDSV is the slope of the plot and the static quenching constant V is calculated from the intercept of the plot.

[1] = target: T2, human serum albumin (HSA) (Homo sapiens, UniProt P02768); experiment: Fluorescence quenching of human serum albumin; assay type: binding; settings: 50 mM phosphate buffer pH 7.4, excitation 295 nm, Stern–Volmer
T2 construct: purchased Sigma–Aldrich (Hamburg, Germany)
Excerpt: Interest in studying the interaction of metal ions and their compounds with blood plasma proteins, especially with serum albumin (HSA), the most abundant protein in plasma involved in the transport of drugs through the bloodstream, is increasing. This molecule has two main binding sites: site I is located in subdomain IIA and site II is located in subdomain IIIA. […] Changes in the appearance of the Trp-214 residue emission band in HSA, in the presence of the tested compounds, may indicate changes in the protein’s conformation, the association of its subunits or denaturation, or the binding of the compound to protein [53, 56].
as §1
Human serum albumin (HSA) was dissolved in 50 mM phosphate buffer saline (PBS) (pH = 7.4), C (HSA) ≈ 5 × 10^− 5 M. The solution of the HSA was titrated at different molar ratios (0.5, 1, 2, 3, 4, 5, 6, 7, 8, 9 and 10) by IrPCp, IrPNr, IrPSf, IrPLm and phosphine ligands (dissolved in DMSO) and incubated for 1 h with any portion from each of the investigated compounds. The final volume of DMSO was 2% in each sample. Afterward, substances were incubated with HSA solution for 1h at room temperature. The excitation wavelength was equal to 295 nm.

pBR322 plasmid DNA = experiment: DNA strand break analysis by agarose gel electrophoresis; assay type: biochemical; settings: pBR322, 10 to 500 μM, 1 h, 4 h, 24 h
Excerpt: Since intercalation usually results in relatively large changes in the double helix structure, we assumed that all iridium(III) complexes cause severe DNA cleavage. The binding ability of iridium(III) complexes with another DNA model—pBR322 plasmid DNA, was studied by gel electrophoresis as a target. The degree of plasmid degradation, which is naturally present in a superhelical form (form I), to determine the ability of the compounds to induce single- and/or double-strand damage of the DNA was checked. This process can lead to the formation of the relaxed/nicked (form II) and linear (form III) forms. The degree of DNA degradation was determined in a wide range of the tested compounds’ concentrations (from 10 to 500 μM) at three different incubation times: 1 h, 4 h, and 24 h (Figure 4E1–E3).
It was proven by cyclic voltamperometry, and fluorescence spectroscopy that the studied herein Ir(III) compounds can generate high levels of ROS, therefore the effect of additional H2O2 on the overall ROS production and the associated DNA damages caused by this radical pathway. Furthermore, to confirm the generation of particular types of ROS involved in plasmid degradation, the experiment using DMSO (effective scavenger of ^•OH), SOD (effective scavenger of O2^•−), [50] and NaN3 (effective scavenger of ^1O2) was performed. In order to exclude the effect of the hydrogen peroxide influence on plasmid DNA degradation, we performed an additional gel electrophoresis for H2O2 in different concentrations (Supplementary Materials, Figure S8).
The ability of IrPCp, IrPNr, IrPSf, IrPLm, and phosphine ligands to induce single- or double-strand breaks in plasmid DNA was tested with the pBR322 plasmid (C = 0.5 mg/mL). All compounds were dissolved in DMF; the concentration was kept constant (10% by volume) in the final solution with/without hydrogen peroxide (H2O2, C = 50 μM), superoxide dismutase (SOD, C = 0.62 μM), dimethyl sulfoxide (DMSO, C = 1.4 mM), or sodium azide (NaN3, C = 40 mM). The reaction was also monitored after the addition of various groove binders: methyl green (MG, C = 10 mg/mL), and 4′,6-diamidino-2-phenylindole (DAPI, C = 5 mg/mL). After incubation for 1 h at 37°C, reaction mixtures (20 μL) were mixed with 3 μL of loading buffer (bromophenol blue in 30% glycerol) and loaded on 1% agarose gels, containing EB, in TBE buffer (90 Mm Tris–borate, […], pH = 8.0). Gel electrophoresis was performed at a constant voltage of 100V (4 Vcm-1) for 60 min. The gel was photographed and processed with a Digital Imaging System (Syngen Biotech, Wroclaw, Poland).

T2 sequence (P02768 25-609): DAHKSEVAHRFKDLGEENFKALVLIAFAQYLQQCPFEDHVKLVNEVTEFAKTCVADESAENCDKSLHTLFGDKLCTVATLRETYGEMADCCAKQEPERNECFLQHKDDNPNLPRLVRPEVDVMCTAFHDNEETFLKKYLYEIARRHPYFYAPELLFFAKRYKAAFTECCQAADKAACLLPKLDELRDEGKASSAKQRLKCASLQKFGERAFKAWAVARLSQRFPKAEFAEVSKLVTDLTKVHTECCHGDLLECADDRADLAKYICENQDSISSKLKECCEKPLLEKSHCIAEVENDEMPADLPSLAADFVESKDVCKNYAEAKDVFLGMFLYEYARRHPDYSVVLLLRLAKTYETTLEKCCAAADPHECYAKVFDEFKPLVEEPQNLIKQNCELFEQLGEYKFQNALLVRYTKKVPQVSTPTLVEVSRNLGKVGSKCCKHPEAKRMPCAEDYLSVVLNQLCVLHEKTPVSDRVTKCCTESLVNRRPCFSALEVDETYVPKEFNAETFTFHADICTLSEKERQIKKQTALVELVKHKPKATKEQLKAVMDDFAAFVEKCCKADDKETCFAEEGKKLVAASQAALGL
T1 sequence (P02787 20-698): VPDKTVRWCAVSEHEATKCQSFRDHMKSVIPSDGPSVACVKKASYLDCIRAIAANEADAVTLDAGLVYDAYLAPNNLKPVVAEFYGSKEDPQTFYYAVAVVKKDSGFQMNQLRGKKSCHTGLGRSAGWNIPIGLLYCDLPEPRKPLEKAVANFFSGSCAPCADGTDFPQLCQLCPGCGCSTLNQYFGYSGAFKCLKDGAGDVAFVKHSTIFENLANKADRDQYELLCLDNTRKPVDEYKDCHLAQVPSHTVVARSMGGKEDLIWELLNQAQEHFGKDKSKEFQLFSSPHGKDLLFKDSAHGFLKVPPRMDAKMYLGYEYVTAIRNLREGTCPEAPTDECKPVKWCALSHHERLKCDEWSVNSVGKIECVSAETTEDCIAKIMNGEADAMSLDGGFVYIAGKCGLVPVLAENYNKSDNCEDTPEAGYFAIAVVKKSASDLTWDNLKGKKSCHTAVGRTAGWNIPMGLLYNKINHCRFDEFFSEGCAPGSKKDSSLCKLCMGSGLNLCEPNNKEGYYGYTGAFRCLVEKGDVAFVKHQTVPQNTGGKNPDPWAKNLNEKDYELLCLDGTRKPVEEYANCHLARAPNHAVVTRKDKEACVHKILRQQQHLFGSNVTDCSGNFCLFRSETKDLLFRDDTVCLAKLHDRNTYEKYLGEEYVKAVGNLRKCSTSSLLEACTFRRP

| Compound | Ksv (apo-Tf fluorescence quenching) (apo-transferrin (apo-Tf)) [M⁻¹] | KDSV (dynamic quenching constant) (CT DNA) | V (static quenching constant, volume of the sphere of action) (CT DNA) | Ksv (HSA fluorescence quenching) [1] [M⁻¹] | double-strand plasmid damage (formation of linear form III) (pBR322 plasmid DNA) |
| --- | --- | --- | --- | --- | --- |
| CCn1cc(C(=O)O)c(=O)c2cc(F)c(N3CCN(CP(c4ccccc4)c4ccccc4)CC3)cc21 [PNr] | 45.6 |  |  |  |  |
| CCn1cc(C(=O)O)c(=O)c2cc(F)c(N3CCN(C[P+](c4ccccc4)(c4ccccc4)[Ir]([Cl])[Cl])C(C)C3)c(F)c21.Cc1c(C)c(C)[c-](C)c1C (racemic) [IrPLm, Ir(η^5-Cp*)Cl2PLm] | 19900 | 2.19×10^3 | 1.45×10^3 | 5.06e+06 | not presumably capable of double-strand plasmid damage |
| CCn1cc(C(=O)O)c(=O)c2cc(F)c(N3CCN(C[P+](c4ccccc4)(c4ccccc4)[Ir]([Cl])[Cl])CC3)cc21.Cc1c(C)c(C)[c-](C)c1C [IrPNr, Ir(η^5-Cp*)Cl2PNr] | 20200 | 1.72×10^3 | 1.13×10^3 | 698000 | not presumably capable of double-strand plasmid damage |
| Cc1c(C)c(C)[c-](C)c1C.O=C(O)c1cn(C2CC2)c2cc(N3CCN(C[P+](c4ccccc4)(c4ccccc4)[Ir]([Cl])[Cl])CC3)c(F)cc2c1=O [IrPCp, Ir(η^5-Cp*)Cl2PCp] | 21800 | 3.21×10^3 | 2.21×10^3 | 2.08e+06 | not presumably capable of double-strand plasmid damage |
| CCn1cc(C(=O)O)c(=O)c2cc(F)c(N3CCN(CP(c4ccccc4)c4ccccc4)C(C)C3)c(F)c21 (stereo not drawn) [PLm] | 152 |  |  | 5.3 |  |
| CC1CN(c2c(F)c(N)c3c(=O)c(C(=O)O)cn(C4CC4)c3c2F)CC(C)N1C[P+](c1ccccc1)(c1ccccc1)[Ir]([Cl])[Cl].Cc1c(C)c(C)[c-](C)c1C (stereo not drawn) [IrPSf, Ir(η^5-Cp*)Cl2PSf] | 13200 | 3.62×10^3 | 2.42×10^3 | 5.67e+06 | not presumably capable of double-strand plasmid damage |
| CC1CN(c2c(F)c(N)c3c(=O)c(C(=O)O)cn(C4CC4)c3c2F)CC(C)N1CP(c1ccccc1)c1ccccc1 (stereo not drawn) [PSf] | 11000 |  |  |  |  |
